The results in this text go back to ChEMBL document CHEMBL1201862, “PubChem BioAssay data set” (2004).

The target in experiment [1] is T1, SUMO-activating enzyme (Homo sapiens, UniProt Q9UBT2). Nature of the experiment: blockers of UBC9-mediated SUMO conjugation – biochemical, AlphaScreen, SUMOylation inhibitor project, confirmation (AID 2018). In kind it is functional.
The target in experiment [2] is T1, SUMO-activating enzyme. Nature of the experiment: blockers of SAE1/SAE2–UBC9 SUMO transfer – biochemical, HTRF, uHTS, primary screen (AID 2006). Type of experiment: protein-complex assay.
For a further experiment, the target named is T2, Estrogen receptor (Homo sapiens, UniProt P03372).
T2 sequence (P03372 whole entry): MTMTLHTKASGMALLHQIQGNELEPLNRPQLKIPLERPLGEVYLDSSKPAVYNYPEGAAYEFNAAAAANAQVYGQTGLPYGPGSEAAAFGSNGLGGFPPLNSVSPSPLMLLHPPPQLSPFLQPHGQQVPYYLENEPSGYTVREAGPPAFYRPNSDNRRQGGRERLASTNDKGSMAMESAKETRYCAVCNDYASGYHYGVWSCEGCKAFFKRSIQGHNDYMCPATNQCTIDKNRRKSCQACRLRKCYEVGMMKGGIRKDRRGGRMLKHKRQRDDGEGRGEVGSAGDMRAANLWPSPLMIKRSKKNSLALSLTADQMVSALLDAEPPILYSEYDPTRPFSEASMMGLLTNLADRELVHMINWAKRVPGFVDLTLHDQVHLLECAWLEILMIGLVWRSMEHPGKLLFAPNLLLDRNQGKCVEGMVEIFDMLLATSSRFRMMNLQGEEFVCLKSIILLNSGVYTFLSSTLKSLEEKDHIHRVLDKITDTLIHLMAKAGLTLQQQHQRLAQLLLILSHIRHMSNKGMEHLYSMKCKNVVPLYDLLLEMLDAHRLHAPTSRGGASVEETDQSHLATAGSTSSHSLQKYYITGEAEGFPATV

Experiment [3] addresses T3, E3 ubiquitin-protein ligase XIAP (Homo sapiens, UniProt P98170). Briefly: Counter Screen using XIAP-Bir3 for Chemical Antagonists of Bir1/2 domains of IAP-family anti-apoptotic proteins. [Related pubchem assays (depositor defined):AID1018, AID1449, AID1514, AID1638, AID1749, AID1750, AID488957, AID488963].
Experiment [4] deals with T3, E3 ubiquitin-protein ligase XIAP. Nature of the experiment: small molecules displacing peptide from XIAP – biochemical, IAP family, fluorescence polarization (AID 1018). In kind it is functional.
Experiment [5] has as its target Voltage-dependent T-type calcium channel subunit alpha-1H (Homo sapiens, UniProt O95180). In kind it is functional.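 Further: channel activity triggered by adding a high calcium stimulation buffer.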
Experiment [6] is described as follows: viability inhibitors of stage V gametocytes – luminescence, dose response (AID 1117278).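 Further: gametocytes exposed to compound for 24 hours.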 Type of experiment: functional, cell-based.
The nature of experiment [7]: viability loss in human Jurkat cells – cell-based, luminescence, cytotoxicity control for P. falciparum gametocyte viability project, dose response (AID 1117277).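 Further: potency reflects loss of cellular ATP meaning fewer viable cells.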 Type of experiment: functional.
The next experiment addresses T4, Protein skinhead-1 (Caenorhabditis elegans, UniProt P34707).
T4 sequence (P34707 whole entry): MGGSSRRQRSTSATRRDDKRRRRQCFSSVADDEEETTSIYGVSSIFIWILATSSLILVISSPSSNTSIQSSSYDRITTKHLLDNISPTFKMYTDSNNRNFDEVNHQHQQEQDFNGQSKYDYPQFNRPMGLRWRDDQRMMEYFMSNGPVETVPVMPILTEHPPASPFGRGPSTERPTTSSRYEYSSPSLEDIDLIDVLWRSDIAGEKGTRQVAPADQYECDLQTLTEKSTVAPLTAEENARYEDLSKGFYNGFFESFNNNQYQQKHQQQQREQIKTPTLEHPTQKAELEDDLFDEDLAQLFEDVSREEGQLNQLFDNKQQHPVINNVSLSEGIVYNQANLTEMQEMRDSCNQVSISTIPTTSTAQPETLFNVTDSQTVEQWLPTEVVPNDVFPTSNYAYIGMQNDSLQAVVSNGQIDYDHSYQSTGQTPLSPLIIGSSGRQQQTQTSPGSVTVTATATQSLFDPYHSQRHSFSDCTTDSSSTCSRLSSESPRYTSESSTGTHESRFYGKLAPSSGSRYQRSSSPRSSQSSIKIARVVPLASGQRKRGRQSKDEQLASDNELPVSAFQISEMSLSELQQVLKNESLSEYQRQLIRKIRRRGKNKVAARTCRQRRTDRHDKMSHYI
In kind it is functional.

The target of experiment [8] is Protein-tyrosine kinase 2-beta (Homo sapiens, UniProt Q14289).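 Further: potency of inhibitors of PYK2 kinase phosphorylation of poly-GT substrate.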
Chain of Protein-tyrosine kinase 2-beta (Q14289 whole entry): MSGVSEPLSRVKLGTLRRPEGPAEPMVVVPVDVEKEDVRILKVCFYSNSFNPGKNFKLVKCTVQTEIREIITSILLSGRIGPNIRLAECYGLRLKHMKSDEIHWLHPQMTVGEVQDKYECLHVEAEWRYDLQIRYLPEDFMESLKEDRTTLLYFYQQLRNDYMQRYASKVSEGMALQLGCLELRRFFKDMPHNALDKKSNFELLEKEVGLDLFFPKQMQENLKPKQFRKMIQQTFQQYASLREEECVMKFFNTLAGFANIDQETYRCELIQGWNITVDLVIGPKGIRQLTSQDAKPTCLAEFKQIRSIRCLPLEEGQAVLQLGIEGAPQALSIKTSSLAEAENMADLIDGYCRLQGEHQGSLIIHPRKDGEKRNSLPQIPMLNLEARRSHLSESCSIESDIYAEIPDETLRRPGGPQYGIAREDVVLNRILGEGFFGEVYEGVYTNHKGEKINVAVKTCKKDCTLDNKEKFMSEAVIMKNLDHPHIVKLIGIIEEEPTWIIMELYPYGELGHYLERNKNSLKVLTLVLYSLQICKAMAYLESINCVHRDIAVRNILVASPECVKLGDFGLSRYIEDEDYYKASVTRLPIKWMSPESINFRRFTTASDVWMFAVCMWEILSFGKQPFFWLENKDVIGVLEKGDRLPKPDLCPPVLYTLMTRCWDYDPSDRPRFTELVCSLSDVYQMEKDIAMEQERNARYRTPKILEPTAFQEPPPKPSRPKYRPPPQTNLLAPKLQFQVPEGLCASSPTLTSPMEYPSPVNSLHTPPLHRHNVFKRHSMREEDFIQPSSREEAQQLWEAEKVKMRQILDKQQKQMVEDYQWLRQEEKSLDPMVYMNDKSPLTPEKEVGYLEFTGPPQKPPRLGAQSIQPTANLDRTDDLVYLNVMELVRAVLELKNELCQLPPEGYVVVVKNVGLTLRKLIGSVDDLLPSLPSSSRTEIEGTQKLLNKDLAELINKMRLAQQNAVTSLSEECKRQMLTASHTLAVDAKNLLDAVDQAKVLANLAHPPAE
In the next experiment the target is Estrogen receptor beta (Homo sapiens, UniProt Q92731). Briefly: blockers of SRC-3 recruitment to ERβ – biochemical, ELISA, streptavidin-HRP readout, orthogonal assay, confirmation (AID 1060).
Experiment [9] can be described thus: viability of uninfected HEp-2 cells – cell-based, HTS, cytotoxicity control for RSV inhibitor project, dose response (AID 2410). Conditions: human respiratory syncytial virus. In kind it is functional.
The nature of experiment [10]: THP-1 cell cytotoxicity, dose response, cytotoxicity control for non-replicating M. tuberculosis project (AID 489025). Type of experiment: functional.
Experiment [11] can be described thus: HepG2 cell cytotoxicity, dose response, cytotoxicity control for non-replicating M. tuberculosis project (AID 489018). Type of experiment: functional. The following applies: Mycobacterium tuberculosis.
Experiment [12] in a line: Vero E6 cell cytotoxicity, dose response, cytotoxicity control for non-replicating M. tuberculosis project, secondary assay (AID 492998). Type of experiment: functional, VeroE6. The following applies: Vero C1008.
A short description of the next experiment: cells. Type of experiment: functional.
The subject of another experiment is INS1. Nature of the experiment: INS-1E survival protection against cytokine death – cell-based, luminescence, retest, dose response (AID 449756).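 Further: cell death triggered by IL-1 beta plus TNF-alpha plus IFN-gamma mixture; protective hits raise ATP signal compared with cytokine alone wells.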 In kind it is functional. Conditions: Rattus norvegicus.
Experiment [13] is described as follows: A549 cell cytotoxicity, dose response, cytotoxicity control, plate reader, cherry-pick, antagonist series (AID 743412). Type of experiment: functional, cell-based.
The nature of experiment [14]: toxicity toward HepG2 liver cells – cell-based, plate reader, cherry-pick, antagonist series, cytotoxicity control, dose response (AID 743416). Type of experiment: functional.
Experiment [15] is described as follows: blockade of melanocortin 4 receptor signaling – cell-based, plate reader, cherry pick, counter-screen for LGR2 antagonist project, dose response (AID 743444).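 Further: transfected HEK 293 cells stimulated with alpha-MSH peptide; potency of inhibitors of the alpha-MSH evoked signal.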 In kind it is functional.
A short description of experiment [16]: viability loss in HEK293 cells – cell-based, plate reader, cherry-picked samples, cytotoxicity control, dose response (AID 743446). In kind it is functional.
Another experiment has as its system HEK293. Nature of the experiment: EBV LMP1 TES2 canonical NF-kB signalling blockers – cell-based, HEK293, luciferase, cherry-pick, dose response (AID 588343). In kind it is functional. The following applies: Homo sapiens.
A further experiment deals with Paired box protein Pax-8 (Homo sapiens, UniProt Q06710). Nature of the experiment: PAX8 transcriptional activity inhibition in RMG-I – RMG-I cells, luciferase, cherry-pick, dose response (AID 687027).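 Further: luciferase reporter driven by Pax8 target thyroperoxidase promoter measured by SteadyGlo luminescence.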 In kind it is functional, cell-based.
Experiment [17] can be described thus: viability loss in THP-1 monocytes – THP-1 cells, cytotoxicity control for Vif-APOBEC3G degradation inhibitor project, dose response (AID 1117359). Type of experiment: functional. Conditions: THP-1.

Active and inactive are the calls of the source.

T3 sequence (P98170 whole entry): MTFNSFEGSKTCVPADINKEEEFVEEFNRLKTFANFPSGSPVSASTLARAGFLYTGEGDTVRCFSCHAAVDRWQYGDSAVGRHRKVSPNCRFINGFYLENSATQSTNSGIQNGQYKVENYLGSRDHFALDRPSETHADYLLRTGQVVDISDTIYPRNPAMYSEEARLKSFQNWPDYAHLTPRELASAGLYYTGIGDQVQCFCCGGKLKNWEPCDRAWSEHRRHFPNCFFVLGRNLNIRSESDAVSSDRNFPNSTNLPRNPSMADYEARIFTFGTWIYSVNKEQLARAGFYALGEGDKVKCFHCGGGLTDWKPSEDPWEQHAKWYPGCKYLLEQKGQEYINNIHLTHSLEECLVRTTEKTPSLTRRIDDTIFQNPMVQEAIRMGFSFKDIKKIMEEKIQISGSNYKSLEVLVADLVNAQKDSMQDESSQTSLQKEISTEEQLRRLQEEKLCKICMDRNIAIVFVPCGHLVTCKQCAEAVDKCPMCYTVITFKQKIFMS
Chain of Voltage-dependent T-type calcium channel subunit alpha-1H (O95180 whole entry): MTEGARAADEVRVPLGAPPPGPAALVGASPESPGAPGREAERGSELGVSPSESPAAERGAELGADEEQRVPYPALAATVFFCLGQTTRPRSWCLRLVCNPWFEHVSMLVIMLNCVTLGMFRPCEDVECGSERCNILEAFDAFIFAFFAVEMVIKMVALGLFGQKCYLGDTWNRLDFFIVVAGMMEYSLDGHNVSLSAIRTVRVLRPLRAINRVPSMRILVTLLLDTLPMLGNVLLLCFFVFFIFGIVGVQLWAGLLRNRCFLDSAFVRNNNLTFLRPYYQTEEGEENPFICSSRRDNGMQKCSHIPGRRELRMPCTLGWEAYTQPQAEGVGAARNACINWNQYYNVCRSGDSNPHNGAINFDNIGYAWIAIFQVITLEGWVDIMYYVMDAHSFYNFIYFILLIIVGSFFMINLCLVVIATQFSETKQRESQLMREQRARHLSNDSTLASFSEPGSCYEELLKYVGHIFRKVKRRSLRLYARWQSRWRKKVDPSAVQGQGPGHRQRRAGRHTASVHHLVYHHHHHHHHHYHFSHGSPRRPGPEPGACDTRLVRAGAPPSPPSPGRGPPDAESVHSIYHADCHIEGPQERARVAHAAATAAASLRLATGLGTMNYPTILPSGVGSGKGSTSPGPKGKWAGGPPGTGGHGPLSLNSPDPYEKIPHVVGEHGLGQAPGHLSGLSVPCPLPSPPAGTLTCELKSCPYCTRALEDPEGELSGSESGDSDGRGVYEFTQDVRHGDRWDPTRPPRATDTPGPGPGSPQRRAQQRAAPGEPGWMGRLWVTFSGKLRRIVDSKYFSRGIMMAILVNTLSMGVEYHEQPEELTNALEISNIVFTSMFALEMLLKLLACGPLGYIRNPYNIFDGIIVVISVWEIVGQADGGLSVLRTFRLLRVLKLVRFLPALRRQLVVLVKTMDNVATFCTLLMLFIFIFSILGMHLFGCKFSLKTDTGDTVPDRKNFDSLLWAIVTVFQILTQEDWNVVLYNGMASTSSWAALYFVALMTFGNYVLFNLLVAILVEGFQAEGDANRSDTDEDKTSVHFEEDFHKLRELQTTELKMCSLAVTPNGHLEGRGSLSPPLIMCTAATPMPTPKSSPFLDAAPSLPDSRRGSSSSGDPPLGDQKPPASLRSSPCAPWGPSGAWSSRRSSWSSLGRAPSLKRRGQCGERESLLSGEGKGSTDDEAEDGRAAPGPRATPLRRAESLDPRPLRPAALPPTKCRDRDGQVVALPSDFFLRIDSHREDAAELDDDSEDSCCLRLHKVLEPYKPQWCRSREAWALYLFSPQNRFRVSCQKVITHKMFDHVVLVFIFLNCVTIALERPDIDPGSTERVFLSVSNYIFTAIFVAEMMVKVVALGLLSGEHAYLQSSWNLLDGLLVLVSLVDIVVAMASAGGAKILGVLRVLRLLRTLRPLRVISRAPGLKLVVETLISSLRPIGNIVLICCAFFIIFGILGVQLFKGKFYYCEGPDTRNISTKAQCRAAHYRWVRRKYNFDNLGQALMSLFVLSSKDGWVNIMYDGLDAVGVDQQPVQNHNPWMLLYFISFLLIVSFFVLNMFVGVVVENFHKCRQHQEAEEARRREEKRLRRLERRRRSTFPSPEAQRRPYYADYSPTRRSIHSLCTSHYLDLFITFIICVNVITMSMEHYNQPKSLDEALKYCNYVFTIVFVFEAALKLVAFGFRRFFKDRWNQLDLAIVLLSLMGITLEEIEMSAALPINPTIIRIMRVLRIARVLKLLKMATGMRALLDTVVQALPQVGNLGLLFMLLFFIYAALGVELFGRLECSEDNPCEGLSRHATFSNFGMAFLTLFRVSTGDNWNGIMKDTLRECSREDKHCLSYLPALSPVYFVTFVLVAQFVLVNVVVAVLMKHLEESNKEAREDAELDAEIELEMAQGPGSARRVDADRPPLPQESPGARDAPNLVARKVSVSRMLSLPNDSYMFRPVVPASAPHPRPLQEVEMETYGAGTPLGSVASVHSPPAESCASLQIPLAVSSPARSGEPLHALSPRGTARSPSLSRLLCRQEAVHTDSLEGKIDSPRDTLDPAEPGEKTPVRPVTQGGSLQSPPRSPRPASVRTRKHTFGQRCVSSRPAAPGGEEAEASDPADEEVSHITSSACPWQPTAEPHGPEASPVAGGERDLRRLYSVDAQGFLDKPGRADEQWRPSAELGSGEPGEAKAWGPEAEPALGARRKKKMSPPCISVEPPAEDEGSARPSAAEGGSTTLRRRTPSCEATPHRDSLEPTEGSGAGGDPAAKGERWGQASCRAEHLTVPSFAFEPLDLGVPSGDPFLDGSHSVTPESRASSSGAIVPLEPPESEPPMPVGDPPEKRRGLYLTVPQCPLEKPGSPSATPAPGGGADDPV
T1 sequence (Q9UBE0 whole entry): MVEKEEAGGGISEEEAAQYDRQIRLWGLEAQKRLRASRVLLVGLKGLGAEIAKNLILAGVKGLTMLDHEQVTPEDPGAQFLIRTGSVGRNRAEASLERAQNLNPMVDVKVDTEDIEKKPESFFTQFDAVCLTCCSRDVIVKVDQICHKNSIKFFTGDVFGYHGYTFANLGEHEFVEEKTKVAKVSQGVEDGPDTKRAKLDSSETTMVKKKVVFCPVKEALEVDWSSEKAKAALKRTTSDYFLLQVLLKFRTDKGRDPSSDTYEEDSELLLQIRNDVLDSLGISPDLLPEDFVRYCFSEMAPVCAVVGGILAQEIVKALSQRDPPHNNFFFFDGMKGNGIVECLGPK
T1 sequence (Q9UBT2 whole entry): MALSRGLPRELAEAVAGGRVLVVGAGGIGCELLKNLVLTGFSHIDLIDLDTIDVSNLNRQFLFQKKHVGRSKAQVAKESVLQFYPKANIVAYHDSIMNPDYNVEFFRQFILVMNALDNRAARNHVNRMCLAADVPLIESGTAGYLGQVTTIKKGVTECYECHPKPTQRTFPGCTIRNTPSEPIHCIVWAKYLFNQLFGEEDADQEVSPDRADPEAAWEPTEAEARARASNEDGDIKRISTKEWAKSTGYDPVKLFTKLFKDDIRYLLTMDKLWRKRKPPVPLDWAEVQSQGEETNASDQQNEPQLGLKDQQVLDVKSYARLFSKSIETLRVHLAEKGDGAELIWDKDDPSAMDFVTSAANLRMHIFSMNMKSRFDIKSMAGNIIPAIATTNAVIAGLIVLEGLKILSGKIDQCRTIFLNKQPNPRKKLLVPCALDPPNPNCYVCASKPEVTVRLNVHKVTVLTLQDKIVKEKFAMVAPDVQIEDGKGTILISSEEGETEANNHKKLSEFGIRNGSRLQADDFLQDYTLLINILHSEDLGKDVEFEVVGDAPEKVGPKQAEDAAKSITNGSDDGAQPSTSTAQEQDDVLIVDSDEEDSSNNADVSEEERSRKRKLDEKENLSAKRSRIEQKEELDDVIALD

Regarding `Cc1ccc(NC(=O)Cn2nc(C(=O)Nc3ccc(C)cc3)ccc2=O)cc1`, the figures for the IC50 on SUMO-activating enzyme [1] and at SUMO-activating enzyme [2] were 30.8 µM (active) and 18.3 µM (active), respectively.
Turning to `CC1Cc2ccccc2N1C(=O)CSc1nnc(NC(=O)Cc2cccs2)s1` (stereo not drawn), on Estrogen receptor, the IC50 is given as 34 µM (not active).
For the molecule `COC(=O)c1ccc(C(=O)OC)c(NS(C)(=O)=O)c1`, the values for the IC50 in experiment [3] and in experiment [4] were > 100 µM (inactive) and > 100 µM (not active), respectively.
As for `Cc1cccc(C(=O)N2CCN(c3ccc(C(F)(F)F)cn3)CC2)c1C`, in experiment [5], the EC50 was 9.85 µM (active).
Turning to `Cc1ccc(-c2noc(CCC(=O)N(C)c3ccccc3C)n2)cc1`, in experiment [5], the EC50 is 4.56 µM (active).
`CN(C)c1nc(N(C)C)n(C(=O)c2cccs2)n1`: the IC50 in experiment [6] was > 109 µM (inactive); in experiment [7], > 83.3 µM (inactive).
On to `C=CCSc1nnc(-c2ccc(Cl)cc2Cl)o1`, for which the IC50 in experiment [3] was > 100 µM (inactive); in experiment [4] it was > 100 µM (not active); on Protein skinhead-1 it was 7.91 µM (active).
For the molecule `Cc1cc(OCC(=O)Nc2ccc(N3CCN(C(=O)c4ccco4)CC3)cc2)cc(C)c1Cl`, the IC50 in experiment [8] was 5.96 µM (active).
Turning to `CCc1ccccc1N(C)C(=O)CCc1nc(-c2ccc(C)cc2)no1`, the EC50 in [5] was 5.38 µM (active).
Turning to `CCN1CCc2c(sc(N)c2C#N)C1`, the IC50 on Estrogen receptor beta is recorded as 6.55 µM (not active); in experiment [8], 23.6 µM (not active).
Turning to `COc1ccc(CSc2nnc(Cc3sc(-c4ccccc4)nc3-c3ccccc3)o2)cc1`, the EC50 in experiment [5] is 5.33 µM (active).
For the molecule `CCN(c1ccccc1)S(=O)(=O)c1ccc2ncc(C(=O)NCCOC)c(O)c2c1`, the IC50 at Estrogen receptor was 27.9 µM (active).
In the case of `N#Cc1ccccc1OCC(=O)OCC(=O)N1CCN(C(=O)c2ccco2)CC1`, the IC50 in experiment [6] is > 109 µM (inactive); in [7], > 83.3 µM (inactive).
In the case of `CCN(CC)C(=O)CSc1nc(N)c2c3c(sc2n1)CC(C)CC3` (stereo not drawn), the CC50 in experiment [9] was 8.74 µM (active). Also, the IC50 in experiment [8] is given as > 69.5 µM (not active).
Turning to `Cn1c(Cc2ccccc2)nnc1SCC(=O)c1cccs1`, at Estrogen receptor, the IC50 is given as > 50 µM (not active).
Take `COc1cc(CNCCO)cc(Cl)c1OCc1ccc(Cl)cc1Cl`: the CC50 in [10] was 12.5 µM (active); in [11] it was 15.1 µM (active); in [12], 14.1 µM (active). For the same molecule, in the experiment “cells”, the IC50 was 24.5 µM (active). Further, the AC50 in the experiment on INS1 is 8.94 µM (active); in experiment [13], 13.9 µM (active); in [14], 11.2 µM (active); in experiment [15], 43.2 µM (active); in experiment [16], 15.6 µM (active).
On to `Nc1nc(NC(=O)c2ccccc2)nn1-c1ccccc1`, for which the IC50 in experiment [6] was > 109 µM (inactive); in experiment [7], > 83.3 µM (inactive).
With `CN(Cc1ccccc1)C(=O)c1ccc2c(c1)NC(=O)C(N1CCOCC1)S2` (stereo not drawn), the IC50 in [3] was > 100 µM (inactive); in experiment [4], > 100 µM (not active).
With `Cc1cc(NC(=O)COC(=O)c2cccc(O)c2)no1`, the IC50 in [6] was > 109 µM (inactive); in experiment [7] it was > 83.2 µM (inactive).
Consider `C=C1C(=O)C2=CC1CCC(=O)C1(C)CCC(OC(C)=O)C(C)(C)C1CC2O` (stereo not drawn), for which the AC50 in the experiment with HEK293 is 5.72 µM (active); on Paired box protein Pax-8, 1.43 µM (active). In experiment [17], the CC50 is 4.83 µM (active).
Consider `CN(C)CCN1CCc2ccccc21`, for which the IC50 at Estrogen receptor beta was 0.0579 µM (not active); in experiment [8] it was 6.46 µM (active).
